Test results published in patent publication US11998539B2, “Substituted aminoquinolones as DGKalpha inhibitors for immune activation” (Bayer Aktiengesellschaft, priority 2019, dated 2024).

Molecular target: DGKα (Homo sapiens (Human), UniProt P23743)
Assay: Human DGKα kinase activity inhibition assay (ADP-Glo)
Format: biochemical
Settings: recombinant full-length human DGKα, 55 μM ATP, 7 μM 1,2-dioleoyl-sn-glycerol, read-out: IC50 values of examples in in vitro human DGKa kinase activity inhibition assays
Outline: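 Recombinant full-length human DGKα (C-terminal FLAG, from insect cells) phosphorylated 1,2-dioleoyl-sn-glycerol presented in octyl-glucopyranoside micelles. ADP formed was quantified by ADP-Glo luminescence. Compounds were added from 100-fold DMSO stocks.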

Chain of DGKα (P23743 other isoform, or with tags, fused parts or gaps): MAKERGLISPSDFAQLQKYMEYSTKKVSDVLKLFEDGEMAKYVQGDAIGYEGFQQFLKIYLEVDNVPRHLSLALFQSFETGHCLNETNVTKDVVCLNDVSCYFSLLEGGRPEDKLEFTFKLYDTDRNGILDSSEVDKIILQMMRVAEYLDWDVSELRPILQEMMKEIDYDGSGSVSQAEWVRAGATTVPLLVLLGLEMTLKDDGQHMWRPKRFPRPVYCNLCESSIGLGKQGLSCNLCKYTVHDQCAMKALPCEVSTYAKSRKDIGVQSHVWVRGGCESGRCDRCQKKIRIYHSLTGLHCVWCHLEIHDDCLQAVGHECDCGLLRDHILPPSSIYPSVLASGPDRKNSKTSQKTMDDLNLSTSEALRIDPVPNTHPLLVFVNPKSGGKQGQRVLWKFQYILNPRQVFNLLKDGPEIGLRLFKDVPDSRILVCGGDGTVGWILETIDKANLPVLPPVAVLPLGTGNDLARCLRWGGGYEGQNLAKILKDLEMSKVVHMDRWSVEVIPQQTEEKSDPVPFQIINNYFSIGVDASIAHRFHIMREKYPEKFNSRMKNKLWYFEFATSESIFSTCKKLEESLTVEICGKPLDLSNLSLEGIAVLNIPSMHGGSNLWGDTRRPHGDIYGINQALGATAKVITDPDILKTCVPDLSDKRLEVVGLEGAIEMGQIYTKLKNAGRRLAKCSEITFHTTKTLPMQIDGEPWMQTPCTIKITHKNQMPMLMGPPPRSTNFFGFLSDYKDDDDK

| Structure (SMILES) | IC50 [nM] |
| --- | --- |
| C=C(c1ccc2c(c1)c(N1CCC(c3nc4cc(C)ccc4o3)CC1)c(C#N)c(=O)n2C)C(F)(F)F [Example 411, 1-methyl-4-[4-(5-methyl-1,3-benzoxazol-2-yl)piperidin-1-yl]-2-oxo-6-(3,3,3-trifluoroprop-1-en-2-yl)-1,2-dihydroquinoline-3-carbonitrile] | 5.1 |
| Cc1ccc2oc(C3CCN(c4c(C#N)c(=O)n(C)c5ccc(C6(C(F)(F)F)CC6)cc45)CC3)nc2c1 [Example 412, 1-methyl-4-[4-(5-methyl-1,3-benzoxazol-2-yl)piperidin-1-yl]-2-oxo-6-[1-(trifluoromethyl)cyclopropyl]-1,2-dihydroquinoline-3-carbonitrile] | 21 |
| Cc1ccc2oc(C3CCN(c4c(C#N)c(=O)n(C)c5cc(OCC(N)=O)ccc45)CC3)nc2c1 [Example 413, 2-({3-cyano-1-methyl-4-[4-(5-methyl-1,3-benzoxazol-2-yl)piperidin-1-yl]-2-oxo-1,2-dihydroquinolin-7-yl}oxy)acetamide] | 1 |
| Cc1ccc2oc(C3CCN(c4c(C#N)c(=O)n(C)c5cc(OC6CCCOC6)ccc45)CC3)nc2c1 (centres unmarked) [Example 414, 1-methyl-4-[4-(5-methyl-1,3-benzoxazol-2-yl)piperidin-1-yl]-7-{[oxan-3-yl]oxy}-2-oxo-1,2-dihydroquinoline-3-carbonitrile] | 1.3 |
| Cc1ccc2oc(C3CCN(c4c(C#N)c(=O)n(C)c5cc(OCC(=O)O)ccc45)CC3)nc2c1 [Example 416, ({3-cyano-1-methyl-4-[4-(5-methyl-1,3-benzoxazol-2-yl)piperidin-1-yl]-2-oxo-1,2-dihydroquinolin-7-yl}oxy)acetic acid] | 34 |
| Cc1ccc2oc(C3(C)CCN(c4c(C#N)c(=O)n(C)c5cc(NC6CC6)ccc45)CC3)nc2c1 [Example 418, 7-(cyclopropylamino)-1-methyl-4-[4-methyl-4-(5-methyl-1,3-benzoxazol-2-yl)piperidin-1-yl]-2-oxo-1,2-dihydroquinoline-3-carbonitrile] | 1.4 |
| COc1cc2c(cc1C)c(N1CCC(c3nc4cc(C)ccc4o3)CC1)c(C#N)c(=O)n2C [Example 419, 7-methoxy-1,6-dimethyl-4-[4-(5-methyl-1,3-benzoxazol-2-yl)piperidin-1-yl]-2-oxo-1,2-dihydroquinoline-3-carbonitrile] | 4.6 |
| COc1cc2c(cc1Br)c(N1CCC(F)(c3nc4cc(C)ccc4o3)CC1)c(C#N)c(=O)n2C [Example 420, 6-bromo-4-[4-fluoro-4-(5-methyl-1,3-benzoxazol-2-yl)piperidin-1-yl]-7-methoxy-1-methyl-2-oxo-1,2-dihydroquinoline-3-carbonitrile] | 0.6 |
| Cc1ccc2oc(C3CCN(c4c(C#N)c(=O)n(C)c5cc([N+](=O)[O-])c(C)cc45)CC3)nc2c1 [Example 421, 1,6-dimethyl-4-[4-(5-methyl-1,3-benzoxazol-2-yl)piperidin-1-yl]-7-nitro-2-oxo-1,2-dihydroquinoline-3-carbonitrile] | 137 |
| Cc1ccc2oc(C3CCN(c4c(C#N)c(=O)n(C)c5cc(O)c(Br)cc45)CC3)nc2c1 [Example 422, 6-bromo-7-hydroxy-1-methyl-4-[4-(5-methyl-1,3-benzoxazol-2-yl)piperidin-1-yl]-2-oxo-1,2-dihydroquinoline-3-carbonitrile] | 0.7 |
| Cc1ccc2oc(C3(C)CCN(c4c(C#N)c(=O)n(C)c5cc(O)c(Br)cc45)CC3)nc2c1 [Example 423, 6-bromo-7-hydroxy-1-methyl-4-[4-methyl-4-(5-methyl-1,3-benzoxazol-2-yl)piperidin-1-yl]-2-oxo-1,2-dihydroquinoline-3-carbonitrile] | 1 |
| Cc1ccc2oc(C3(C)CCN(c4c(C#N)c(=O)n(C)c5cc(O)c(C#N)cc45)CC3)nc2c1 [Example 426, 7-hydroxy-1-methyl-4-[4-methyl-4-(5-methyl-1,3-benzoxazol-2-yl)piperidin-1-yl]-2-oxo-1,2-dihydroquinoline-3,6-dicarbonitrile] | 13 |
| Cc1ccc2oc(C3CCN(c4c(C#N)c(=O)n(C)c5cc(O)c(C)cc45)CC3)nc2c1 [Example 428, 7-hydroxy-1,6-dimethyl-4-[4-(5-methyl-1,3-benzoxazol-2-yl)piperidin-1-yl]-2-oxo-1,2-dihydroquinoline-3-carbonitrile] | 0.6 |
| Cn1c(=O)c(C#N)c(N2CCC(c3nnc(-c4cccc(C(F)(F)F)c4)o3)CC2)c2cc(Br)ccc21 [Example 435, 6-bromo-1-methyl-2-oxo-4-(4-{5-[3-(trifluoromethyl)phenyl]-1,3,4-oxadiazol-2-yl}piperidin-1-yl)-1,2-dihydroquinoline-3-carbonitrile] | 4.3 |
| COc1ccc2c(c1)c(N1CCC(c3nc(-c4cccc(C)c4)no3)CC1)c(C#N)c(=O)n2C [Example 436, 6-methoxy-1-methyl-4-{4-[3-(3-methylphenyl)-1,2,4-oxadiazol-5-yl]piperidin-1-yl}-2-oxo-1,2-dihydroquinoline-3-carbonitrile] | 32 |
| COc1ccc2c(c1)c(N1CCC(c3nc(-c4ccccc4)no3)CC1)c(C#N)c(=O)n2C [Example 437, 6-methoxy-1-methyl-2-oxo-4-[4-(3-phenyl-1,2,4-oxadiazol-5-yl)piperidin-1-yl]-1,2-dihydroquinoline-3-carbonitrile] | 27 |
| COc1ccc2c(c1)c(N1CCC(c3nc(-c4ccccc4C)no3)CC1)c(C#N)c(=O)n2C [Example 438, 6-methoxy-1-methyl-4-{4-[3-(2-methylphenyl)-1,2,4-oxadiazol-5-yl]piperidin-1-yl}-2-oxo-1,2-dihydroquinoline-3-carbonitrile] | 31 |
| COc1ccc2c(c1)c(N1CCC(c3nnc(-c4ccccc4)o3)CC1)c(C#N)c(=O)n2C [Example 439, 6-methoxy-1-methyl-2-oxo-4-[4-(5-phenyl-1,3,4-oxadiazol-2-yl)piperidin-1-yl]-1,2-dihydroquinoline-3-carbonitrile] | 492 |
| Cn1c(=O)c(C#N)c(N2CCC(c3nc(-c4ccccc4)no3)CC2)c2cc(Br)ccc21 [Example 440, 6-bromo-1-methyl-2-oxo-4-[4-(3-phenyl-1,2,4-oxadiazol-5-yl)piperidin-1-yl]-1,2-dihydroquinoline-3-carbonitrile] | 8.9 |
| Cn1c(=O)c(C#N)c(N2CCC(c3nnc(-c4ccccc4)o3)CC2)c2cc(Br)ccc21 [Example 441, 6-bromo-1-methyl-2-oxo-4-[4-(5-phenyl-1,3,4-oxadiazol-2-yl)piperidin-1-yl]-1,2-dihydroquinoline-3-carbonitrile] | 11 |
| Cc1ccccc1-c1nnc(C2CCN(c3c(C#N)c(=O)n(C)c4ccc(Br)cc34)CC2)o1 [Example 442, 6-bromo-1-methyl-4-{4-[5-(2-methylphenyl)-1,3,4-oxadiazol-2-yl]piperidin-1-yl}-2-oxo-1,2-dihydroquinoline-3-carbonitrile] | 15 |
| Cc1cccc(-c2nnc(C3CCN(c4c(C#N)c(=O)n(C)c5ccc(Br)cc45)CC3)o2)c1 [Example 443, 6-bromo-1-methyl-4-{4-[5-(3-methylphenyl)-1,3,4-oxadiazol-2-yl]piperidin-1-yl}-2-oxo-1,2-dihydroquinoline-3-carbonitrile] | 9.1 |
| Cc1ccccc1-c1nnc(C2CCN(c3c(C#N)c(=O)n(C)c4cc(O)ccc34)CC2)o1 [Example 444, 7-hydroxy-1-methyl-4-{4-[5-(2-methylphenyl)-1,3,4-oxadiazol-2-yl]piperidin-1-yl}-2-oxo-1,2-dihydroquinoline-3-carbonitrile] | 82 |
